Our source for the Activity and IC50 values is ChEMBL document CHEMBL1158701, “Sesquiterpene phenylpropanoids from Ferula fukanensis and their nitric oxide production inhibitory effects” (J Nat Prod, 2005).

SMILES strings stand for the structures. The source made the active and inactive calls. The calls are words filed in the database; no cut-off is given here.

One assay concerns RAW264.7. Briefly: Inhibition of LPS/IFNgamma -induced NO production in mouse RAW264.7 cells at 30 ug/ml after 16 hrs. It is filed as functional, cell-based.
Settings: not given
As for `COc1ccc(C(=O)[C@H]2C(=O)O[C@](C)(CC/C=C(\C)CCC=C(C)C)[C@@H]2C)c(O)c1` (relative stereo), the result was inactive.

Regarding `CC(C)=CCC/C(C)=C/CC[C@]1(C)OC(=O)[C@H](C(=O)c2ccc(O)cc2O)[C@H]1C` (relative stereo), the result was inactive.

The test system of another assay is RAW264.7. Briefly: Inhibition of LPS/IFNgamma -induced NO production in mouse RAW264.7 cells after 16 hrs. It is filed as functional, cell-based. The note with it: RAW264.7, 16 h.
Broadly, the IC50 is the midpoint of a concentration-inhibition curve. Turning to `CC(C)=CC(=O)/C=C(\C)CCC[C@@]1(C)OC(=O)[C@H](C(=O)c2ccc(O)cc2O)[C@H]1C` (relative stereo) [FUKANEDONE C], the IC50 stood at 6.7 µM.

Consider `CCCCOC(=O)C(=O)c1ccc(O)cc1O` [FUKANEKETOESTER A], for which the 50% inhibitory concentration (IC50) worked out at 113 µM.

`COc1ccc(C(=O)[C@H]2C(=O)O[C@](C)(CC/C=C(\C)Cc3cc(C)co3)[C@@H]2C)c(O)c1` (relative stereo) [FUKANEDONE E] came in with an IC50 of 76.2 µM.

Consider `CC(C)=CC(=O)/C=C(/C)CCC[C@@]1(C)OC(=O)[C@H](C(=O)c2ccc(O)cc2O)[C@H]1C` (relative stereo) [FUKANEDONE D], for which inhibition was half-maximal at 27.8 µM (IC50).
